Test results as given in patent US11377456B2, “Crystalline form of Remdesivir” (Apotex Inc., priority 2020, dated 2022).

Experiments:
[1] = Comparative intrinsic dissolution testing (Wood's apparatus); format: physicochemical; conditions: 900 mL distilled water, 37° C., 50 rpm, sample compressed at 1.5 metric tons for 1 minute
Experimental: Intrinsic dissolution rate (IDR) measurements were performed using a Wood's apparatus. Samples were prepared by compressing an amount (267 mg Form II; 258 mg APO-I) of sample at 1.5 metric tons for 1 minute. A dissolution medium consisting of 900 mL distilled water maintained at 37° C., and rotation speed of 50 rpm, was used for each experiment.

[2] = PXRD study of crystalline form stability in a 27° C./60% RH stability chamber; format: physicochemical; conditions: capped and uncapped samples, at least 5 weeks
Experimental: Remdesivir Form APO-I can be characterized by a PXRD diffractogram comprising, among other peaks, characteristic peaks, expressed in degrees 2θ (±0.2°), at 4.0°, 17.0° and 20.3°. Preferably, the PXRD diffractogram further comprises at least three peaks, expressed in degrees 2θ (±0.2°), selected from the group consisting of 10.4°, 13.0°, 14.1°, 15.3°, 17.5°, 18.3°, 22.1°, 23.9°, 25.1° and 25.9°. More preferably, the PXRD diffractogram further comprises peaks, expressed in degrees 2θ (±0.2°), at 10.4°, 13.0°, 14.1°, 15.3°, 17.5°, 18.3°, 22.1°, 23.9°, 25.1° and 25.9°.
The PXRD diffractogram was recorded on a Bruker D8 Discover powder X-ray diffractometer (Bruker-AXS, Karlsruhe, Germany). The generator was a Micro-focus X-ray source (Incoatec IμS Cu anode, λ=1.54060 Å) with a voltage of 50 kV and current of 1.00 mA. X-rays were focused with a micro mask 0.1 mm plug-in microslit. One frame was collected using a still scan with a PILATUS3 R 100K-A detector at the distance of 154.72 mm from the sample. Raw data was evaluated using the program EVA (Bruker-AXS, Karlsruhe, Germany).

Intrinsic Dissolution Rate [1]	Compound	Change in crystalline form by PXRD (polymorphic stability) [2]
0.013 mg min^−1 cm^−2	CCC(CC)COC(=O)[C@H](C)N[P@](=O)(OC[C@H]1O[C@@](C#N)(c2ccc3c(N)ncnn23)[C@H](O)[C@@H]1O)Oc1ccccc1 [Remdesivir Form APO-I]	no change in the crystalline form occurred
0.0083 mg min^−1 cm^−2	CCC(CC)COC(=O)[C@H](C)N[P@](=O)(OC[C@H]1O[C@@](C#N)(c2ccc3c(N)ncnn23)[C@H](O)[C@@H]1O)Oc1ccccc1 [Remdesivir Form II, reference compound]	
